In ChEMBL document CHEMBL5042487, “Design, synthesis, and biological activity evaluation of 2-(benzo[b]thiophen-2-yl)-4-phenyl-4,5-dihydrooxazole derivatives as broad-spectrum antifungal agents” (Eur J Med Chem, 2022):
Converted amounts (≈) assume the structure as drawn.

Experiments:
Format in all cases: functional
Cryptococcus neoformans = test: Antifungal activity against Cryptococcus neoformans GIM 2.209 assessed as inhibition of fungal growth by NCCLS protocol based method
Candida albicans [1] = test: Antifungal activity against Candida albicans GIM 2.194 assessed as inhibition of fungal growth by NCCLS protocol based method
Candida albicans [2] = test: Antifungal activity against Candida albicans SC5314 assessed as inhibition of fungal growth by NCCLS protocol based method
Aspergillus fumigatus = test: Antifungal activity against Aspergillus fumigatus CGMCC 3.7795 assessed as inhibition of fungal growth by NCCLS protocol based method
Candida tropicalis = test: Antifungal activity against Candida tropicalis GIM 2.183 assessed as inhibition of fungal growth by NCCLS protocol based method
Candida albicans [3] = test: Antifungal activity against fluconazole resistant Candida albicans CaR assessed as inhibition of fungal growth by NCCLS protocol based method
Candida albicans [4] = test: Antifungal activity against fluconazole and itraconazole resistant Candida albicans 17# assessed as inhibition of fungal growth by NCCLS protocol based method

| SMILES | MIC (Cryptococcus neoformans) [µg/mL] | MIC (Candida albicans [1]) [µg/mL] | MIC (Candida albicans [2]) [µg/mL] | MIC (Aspergillus fumigatus) [µg/mL] | MIC (Candida tropicalis) [µg/mL] | MIC (Candida albicans [3]) [µg/mL] | MIC (Candida albicans [4]) [µg/mL] |
| --- | --- | --- | --- | --- | --- | --- | --- |
| c1ccc(C2(Cn3cncn3)COC(c3ccc(-c4ccoc4)cc3)=N2)cc1 (stereo not drawn) | 0.25 (≈ 0.675 µM) | 0.5 (≈ 1.35 µM) | < 0.03 | 0.5 (≈ 1.35 µM) | < 0.125 |  |  |
| c1ccc(C2(Cn3cncn3)COC(c3nc4ccccc4s3)=N2)cc1 (stereo not drawn) | > 64 | > 16 | > 16 | > 64 | > 64 |  |  |
| Fc1ccc(C2(Cn3cncn3)COC(c3cc4ccc(F)cc4s3)=N2)cc1 (stereo not drawn) | 2 (≈ 5.05 µM) | 0.5 (≈ 1.26 µM) | 0.125 (≈ 0.315 µM) | 1 (≈ 2.52 µM) | 0.25 (≈ 0.631 µM) | > 64 | > 64 |
| Brc1ccc2cc(C3=NC(Cn4cncn4)(c4ccccc4)CO3)sc2c1 (stereo not drawn) | 0.25 (≈ 0.569 µM) | 0.06 (≈ 0.137 µM) | < 0.03 | 0.5 (≈ 1.14 µM) | 0.06 (≈ 0.137 µM) |  |  |
| FC(F)(F)Oc1ccc2cc(C3=NC(Cn4cncn4)(c4ccccc4)CO3)sc2c1 (stereo not drawn) | > 64 | > 16 | 0.06 (≈ 0.135 µM) | > 64 | > 16 |  |  |
| O=C(Nc1ccc(C2=NC(Cn3cncn3)(c3ccccc3)CO2)cc1)c1ccccc1 (stereo not drawn) | > 64 | 8 (≈ 18.9 µM) | > 16 | > 64 | > 64 |  |  |
| Fc1ccc(C2(Cn3cncn3)COC(c3ccc(-c4ccccc4F)cc3)=N2)cc1 (stereo not drawn) | > 64 | < 0.03 | < 0.03 | > 64 | 0.06 (≈ 0.144 µM) |  |  |
| Fc1ccc(C2(Cn3cncn3)COC(c3cc4ccc(Br)cc4s3)=N2)cc1 (stereo not drawn) | 1 (≈ 2.19 µM) | 0.06 (≈ 0.131 µM) | < 0.03 | 2 (≈ 4.37 µM) | 0.13 (≈ 0.284 µM) | 0.5 (≈ 1.09 µM) | > 64 |
| Fc1cccc(C2(Cn3cncn3)COC(c3cc4ccc(Cl)cc4s3)=N2)c1 (stereo not drawn) | 0.25 (≈ 0.606 µM) | < 0.03 | < 0.03 | 1 (≈ 2.42 µM) | 4 (≈ 9.69 µM) | > 64 | > 64 |
| Clc1ccc(C2(Cn3cncn3)COC(c3cc4ccc(Br)cc4s3)=N2)cc1 (stereo not drawn) | 0.25 (≈ 0.528 µM) | < 0.03 | < 0.03 | 1 (≈ 2.11 µM) | 0.06 (≈ 0.127 µM) | 0.5 (≈ 1.06 µM) | > 64 |
| Clc1ccc2cc(C3=NC(Cn4cncn4)(c4ccccc4)CO3)sc2c1 (stereo not drawn) | 0.25 (≈ 0.633 µM) | 0.06 (≈ 0.152 µM) | < 0.03 | 0.5 (≈ 1.27 µM) | 0.06 (≈ 0.152 µM) |  |  |
| c1ccc(C2=NC(Cn3cncn3)(c3ccccc3)CO2)cc1 (stereo not drawn) | > 64 | > 16 | > 16 | > 64 | > 64 |  |  |
| c1ccc(-c2nnc(-c3ccc(C4=NC(Cn5cncn5)(c5ccccc5)CO4)cc3)o2)cc1 (stereo not drawn) | > 64 | > 16 | > 16 | > 64 | > 64 |  |  |
| Brc1ccc2sc(C3=NC(Cn4cncn4)(c4ccccc4)CO3)cc2c1 (stereo not drawn) | > 64 | > 16 | > 16 | > 64 | > 16 |  |  |
| Fc1ccc(C2(Cn3cncn3)COC(c3cc4ccc(Cl)cc4s3)=N2)c(F)c1 (stereo not drawn) | 0.25 (≈ 0.58 µM) | < 0.03 | 0.06 (≈ 0.139 µM) | > 64 | 0.06 (≈ 0.139 µM) |  |  |
| Fc1cc(F)cc(C2(Cn3cncn3)COC(c3cc4ccc(Cl)cc4s3)=N2)c1 (stereo not drawn) | 0.25 (≈ 0.58 µM) | 0.06 (≈ 0.139 µM) | 0.06 (≈ 0.139 µM) | > 64 | 0.125 (≈ 0.29 µM) |  |  |
| c1ccc(C2(Cn3cncn3)COC(c3cc4ccccc4o3)=N2)cc1 (stereo not drawn) | 2 (≈ 5.81 µM) | > 16 | > 16 | 8 (≈ 23.2 µM) | > 64 |  |  |
| CC(=O)N1CCN(c2ccc(C3=NC(Cn4cncn4)(c4ccccc4)CO3)cc2)CC1 (stereo not drawn) | > 64 | > 16 | > 16 | > 64 | > 64 |  |  |
| c1ccc(-c2cc(C3=NC(Cn4cncn4)(c4ccccc4)CO3)no2)cc1 (stereo not drawn) | > 64 | > 16 | > 16 | 2 (≈ 5.39 µM) | > 64 |  |  |
| Fc1ccc(C2(Cn3cncn3)COC(c3cc4ccc(Br)cc4s3)=N2)c(F)c1 (stereo not drawn) | 0.5 (≈ 1.05 µM) | < 0.03 | < 0.03 | > 64 | < 0.03 |  |  |
| Clc1ccc2sc(C3=NC(Cn4cncn4)(c4ccccc4)CO3)cc2c1 (stereo not drawn) | > 64 | > 16 | 0.5 (≈ 1.27 µM) | 32 (≈ 81 µM) | > 16 |  |  |
| CCC(C)n1ncn(-c2ccc(N3CCN(c4ccc(OCC5COC(Cn6cncn6)(c6ccc(Cl)cc6Cl)O5)cc4)CC3)cc2)c1=O (stereo not drawn) [ITRACONAZOLE] | < 0.125 | < 0.03 | < 0.03 | < 0.125 | < 0.03 |  |  |
| FC(F)(F)c1ccc2cc(C3=NC(Cn4cncn4)(c4ccccc4)CO3)sc2c1 (stereo not drawn) | 16 (≈ 37.3 µM) | > 16 | 0.25 (≈ 0.584 µM) | > 64 | 8 (≈ 18.7 µM) |  |  |
| c1ccc(-c2ccc(C3=NC(Cn4cncn4)(c4ccccc4)CO3)s2)cc1 (stereo not drawn) | 0.5 (≈ 1.29 µM) | > 16 | > 16 | 4 (≈ 10.3 µM) | > 64 |  |  |

More lines, main results first:

| MIC (Cryptococcus neoformans) [µg/mL] | MIC (Candida albicans [1]) [µg/mL] | MIC (Candida albicans [2]) [µg/mL] | MIC (Aspergillus fumigatus) [µg/mL] | MIC (Candida tropicalis) [µg/mL] | SMILES | MIC (Candida albicans [3]) [µg/mL] | MIC (Candida albicans [4]) [µg/mL] |
| --- | --- | --- | --- | --- | --- | --- | --- |
| 0.5 (≈ 1.16 µM) | 0.06 (≈ 0.14 µM) | 0.06 (≈ 0.14 µM) | 16 (≈ 37.3 µM) | 0.125 (≈ 0.291 µM) | Clc1cccc(C2(Cn3cncn3)COC(c3cc4ccc(Cl)cc4s3)=N2)c1 (stereo not drawn) |  |  |
| 1 (≈ 2.82 µM) | > 16 | > 16 | 4 (≈ 11.3 µM) | > 64 | c1ccc(C2(Cn3cncn3)COC(c3ccc4ccccc4c3)=N2)cc1 (stereo not drawn) |  |  |
| 0.25 (≈ 0.526 µM) | 0.06 (≈ 0.126 µM) | 0.06 (≈ 0.126 µM) | > 64 | 0.125 (≈ 0.263 µM) | Fc1cc(F)cc(C2(Cn3cncn3)COC(c3cc4ccc(Br)cc4s3)=N2)c1 (stereo not drawn) |  |  |
| 0.5 (≈ 1.06 µM) | 0.06 (≈ 0.127 µM) | 0.06 (≈ 0.127 µM) | 16 (≈ 33.8 µM) | 0.125 (≈ 0.264 µM) | Clc1cccc(C2(Cn3cncn3)COC(c3cc4ccc(Br)cc4s3)=N2)c1 (stereo not drawn) |  |  |
| 16 (≈ 42.3 µM) | > 16 | 1 (≈ 2.64 µM) | 1 (≈ 2.64 µM) | > 16 | Fc1ccc2sc(C3=NC(Cn4cncn4)(c4ccccc4)CO3)cc2c1 (stereo not drawn) |  |  |
| > 64 | > 16 | > 16 | > 64 | > 16 | N#Cc1ccc2cc(C3=NC(Cn4cncn4)(c4ccccc4)CO3)sc2c1 (stereo not drawn) |  |  |
| > 64 | > 16 | > 16 | > 64 | > 16 | N#Cc1ccc2sc(C3=NC(Cn4cncn4)(c4ccccc4)CO3)cc2c1 (stereo not drawn) |  |  |
| 4 (≈ 10.6 µM) | 1 (≈ 2.64 µM) | 0.25 (≈ 0.661 µM) | 2 (≈ 5.28 µM) | 4 (≈ 10.6 µM) | Fc1ccc2cc(C3=NC(Cn4cncn4)(c4ccccc4)CO3)sc2c1 (stereo not drawn) |  |  |
| > 64 | > 16 | > 16 | > 64 | > 64 | c1ccc(COc2ccc(C3=NC(Cn4cncn4)(c4ccccc4)CO3)cc2)cc1 (stereo not drawn) |  |  |
| > 64 | 0.06 (≈ 0.135 µM) | < 0.03 | > 64 | 0.25 (≈ 0.563 µM) | FC(F)(F)Oc1ccc2sc(C3=NC(Cn4cncn4)(c4ccccc4)CO3)cc2c1 (stereo not drawn) |  |  |
| > 64 | > 16 | 0.5 (≈ 1.17 µM) | > 64 | > 16 | FC(F)(F)c1ccc2sc(C3=NC(Cn4cncn4)(c4ccccc4)CO3)cc2c1 (stereo not drawn) |  |  |
| 0.25 (≈ 0.694 µM) | 1 (≈ 2.77 µM) | 0.25 (≈ 0.694 µM) | 1 (≈ 2.77 µM) | 2 (≈ 5.55 µM) | c1ccc(C2(Cn3cncn3)COC(c3cc4ccccc4s3)=N2)cc1 (stereo not drawn) |  |  |
